Measured values from patent US12201632B2, “Levoketoconazole for treatment of congenital adrenal hyperplasia and primary aldosteronism” (Strongbridge Dublin Limited, priority 2018, dated 2025).

Columns and labels:
[1] = system: primary human corticotroph pituitary adenoma cultures; experiment: ACTH secretion corrected for cell number in primary corticotroph pituitary adenoma cultures; type: cell-based; settings: both primary pituitary adenoma cultures, 1 μM, 7 days
Procedure: To obtain primary cultures, adrenal specimens (adrenocortical adenomas, adrenal hyperplasias and adrenocortical carcinomas) were collected after adrenalectomy at the department of Surgery, Erasmus University Medical Center, Rotterdam, the Netherlands, between April 2016 and May 2018. The study was conducted under guidelines that have been approved by the Medical Ethics Committee of the Erasmus Medical Center and informed consent was obtained from all patients. Immediately after surgery, specimens were minced into small pieces of 2-3 mm^3, washed in culture medium and centrifuged for 5 minutes at 600 g. The tissue was stored overnight in culture medium at 4° C., where after the tissue was centrifuged again and the supernatant was removed. Fragments were dissociated using 10-25 ml collagenase type 1 (2 mg/ml: Sigma-Aldrich), followed by incubation at 37° C. for up to two hours. […] Cell viability and cell amount were counted by trypan blue exclusion. […]
At the end of the AtT20 and primary pituitary adenoma culture experiments, medium was collected and supplemented with 1% of the protease inhibitor Trasylol to prevent degradation of ACTH. ACTH was measured using a commercially available, nonisotopic automatic chemiluminescence system (DPC Immulite).

[2] = system: CPA primary culture no. 2; experiment: Steroid profile by LC/MS-MS in CPA primary culture no. 2; type: cell-based, human; settings: for 11-DOC absolute change vs control / 11-DOC percentage change vs control / 17-OHP absolute change vs control / 17-OHP percentage change vs control / Androstenedione absolute change vs control / Androstenedione percentage change vs control / Corticosterone absolute change vs control / Corticosterone percentage change vs control / Cortisol absolute change vs control / Cortisol percentage change vs control / DHEA absolute change vs control / DHEAS absolute change vs control / Prog absolute change vs control / Prog percentage change vs control / Testosterone absolute change vs control / Testosterone percentage change vs control: CPA no. 2, Basal, 3 days
Procedure: To obtain primary cultures, adrenal specimens (adrenocortical adenomas, adrenal hyperplasias and adrenocortical carcinomas) were collected after adrenalectomy at the department of Surgery, Erasmus University Medical Center, Rotterdam, the Netherlands, between April 2016 and May 2018. The study was conducted under guidelines that have been approved by the Medical Ethics Committee of the Erasmus Medical Center and informed consent was obtained from all patients. Immediately after surgery, specimens were minced into small pieces of 2-3 mm^3, washed in culture medium and centrifuged for 5 minutes at 600 g. The tissue was stored overnight in culture medium at 4° C., where after the tissue was centrifuged again and the supernatant was removed. Fragments were dissociated using 10-25 ml collagenase type 1 (2 mg/ml: Sigma-Aldrich), followed by incubation at 37° C. for up to two hours. Ficoll (GE healthcare) density gradient separation was used once or twice as required in order to separate contaminating red blood cells from the tumor cells. Cell viability and cell amount were counted by trypan blue exclusion. Dissociated cells were plated at a density of 10^5 cells per well. ACTH-secreting corticotroph pituitary adenoma tissue from patients with Cushing's disease (n=2) was available after transsphenoidal surgery. Single-cell suspensions of the pituitary adenoma tissues were prepared as previously described in detail.
Primary culture conditions for primary cultures were similar as described in the section ‘cell culture and compounds’, but with small adjustments: ACTH was used at a concentration of 85 pM (250 pg/mL), treatment was started 3-4 days after plating of the cells and cells were incubated for 3 days, and; for pituitary primary cultures, levoketoconazole and racemic ketoconazole were only tested at a concentration of 1 μM. Owing to a limited number of cells obtained from the specimens, not all experiments were carried out in every primary culture.
Cortisol concentrations were measured in the supernatant using a chemiluminescence immunoassay system (Immulite 2000XPi; Siemens DPC Inc., Los Angeles, Calif., USA). In addition, we carried out multi-steroid analysis by liquid chromatography/mass spectrometry (LC/MS-MS) to accurately quantify androstenedione, corticosterone, cortisol, 11-deoxycortisol, DHEA, DHEAS, progesterone, 17-hydroxyprogesterone, and testosterone. Concentrations that were tested on the LC/MS-MS were closest to 50% inhibition or maximal inhibition of cortisol as determined by the immunoassay. Steroids were quantified with respect to a calibration series, with internal standards. Steroids were quantified on a Xevo TQS LC-MS/MS (Waters Chromatography).
Statistical analysis was performed using Graphpad Prism 6.0 (Graphpad Software, San Diego, CA). Non-linear regression curve fitting program was used to calculate the half maximal inhibitory concentrations (IC50) on cortisol production. Effects of both compounds on the steroid profile were measured as absolute change compared to control and compared using the Student's t-test. When assessing differences between effects of both compounds, the percentage change was evaluated and compared in order to correct for differences in the vehicle treated control cells. Values of P<0.05 were considered statistically significant and data are presented as mean SEM.

CC(=O)N1CCN(c2ccc(OC[C@@H]3CO[C@@](Cn4ccnc4)(c4ccc(Cl)cc4Cl)O3)cc2)CC1 (relative stereo) [levoketoconazole, 2S,4R cis-1-acetyl-4-[4-[[2-(2,4-dichlorophenyl)-2-(1H-imidazol-1-ylmethyl)-1,3-dioxolan-4-yl]methoxyl]phenyl]piperazine]
effects on ACTH secretion corrected for cell number [1]: No effects | 11-DOC absolute change vs control ([2]; 0.1 μM): +14.80 nmol/l | 11-DOC percentage change vs control ([2]; 0.1 μM): (+5.4%) | 17-OHP absolute change vs control ([2]; 0.1 μM): +5.125 nmol/l | 17-OHP percentage change vs control ([2]; 0.1 μM): (+26%) | Androstenedione absolute change vs control ([2]; 0.1 μM): -36.68 nmol/L | Androstenedione percentage change vs control ([2]; 0.1 μM): −79% | Corticosterone absolute change vs control ([2]; 0.1 μM): +49.50 nmol/l | Corticosterone percentage change vs control ([2]; 0.1 μM): +54% | Cortisol absolute change vs control ([2]; 0.1 μM): -264.2 nmol/L | Cortisol percentage change vs control ([2]; 0.1 μM): −40% | DHEA absolute change vs control ([2]; 0.1 μM): <LLQ | DHEAS absolute change vs control ([2]; 0.1 μM): <LLQ | Prog absolute change vs control ([2]; 0.1 μM): +2.350 nmol/l | Prog percentage change vs control ([2]; 0.1 μM): (+138%) | Testosterone absolute change vs control ([2]; 0.1 μM): -0.3750 nmol/L | Testosterone percentage change vs control ([2]; 0.1 μM): −66% | Androstenedione absolute change vs control ([2]; 0.1 μM, listed as LK): -36.68 nmol/L | Androstenedione percentage change vs control ([2]; 0.1 μM, listed as LK): (−79%) | Corticosterone percentage change vs control ([2]; 0.1 μM, listed as LK): (+54%) | Cortisol absolute change vs control ([2]; 0.1 μM, listed as LK): -264.2 nmol/L | Cortisol percentage change vs control ([2]; 0.1 μM, listed as LK): (−40%) | Testosterone absolute change vs control ([2]; 0.1 μM, listed as LK): -0.3750 nmol/L | Testosterone percentage change vs control ([2]; 0.1 μM, listed as LK): (−66%) | 11-DOC absolute change vs control ([2]; 0.5 μM): -98.25 nmol/L | 11-DOC percentage change vs control ([2]; 0.5 μM): (−36%) | 17-OHP absolute change vs control ([2]; 0.5 μM): +21.28 nmol/l | 17-OHP percentage change vs control ([2]; 0.5 μM): (+107%) | Androstenedione absolute change vs control ([2]; 0.5 μM): -45.18 nmol/L | Androstenedione percentage change vs control ([2]; 0.5 μM): (−97%) | Corticosterone absolute change vs control ([2]; 0.5 μM): +218.0 nmol/l | Corticosterone percentage change vs control ([2]; 0.5 μM): (+239%) | Cortisol absolute change vs control ([2]; 0.5 μM): -633.3 nmol/L | Cortisol percentage change vs control ([2]; 0.5 μM): (−96%) | DHEA absolute change vs control ([2]; 0.5 μM): <LLQ | DHEAS absolute change vs control ([2]; 0.5 μM): <LLQ | Prog absolute change vs control ([2]; 0.5 μM): +39.95 nmol/l | Prog percentage change vs control ([2]; 0.5 μM): (+2350%) | Testosterone absolute change vs control ([2]; 0.5 μM): -0.4725 nmol/L | Testosterone percentage change vs control ([2]; 0.5 μM): (−83%) | total change of steroids: decrease ([2]; CPA no. 2, basal, 0.1 μM): 229.5 nmol/L

CC(=O)N1CCN(c2ccc(OCC3COC(Cn4ccnc4)(c4ccc(Cl)cc4Cl)O3)cc2)CC1 (racemic) [racemic ketoconazole, Ketoconazole]
effects on ACTH secretion corrected for cell number [1]: No effects | 11-DOC absolute change vs control ([2]; 0.1 μM): +6.400 nmol/l | 11-DOC percentage change vs control ([2]; 0.1 μM): (+2.4%) | 17-OHP absolute change vs control ([2]; 0.1 μM): -0.4750 nmol/L | 17-OHP percentage change vs control ([2]; 0.1 μM): (−2.4%) | Androstenedione absolute change vs control ([2]; 0.1 μM): -32.85 nmol/L | Androstenedione percentage change vs control ([2]; 0.1 μM): −66% | Corticosterone absolute change vs control ([2]; 0.1 μM): +175.8 nmol/l | Corticosterone percentage change vs control ([2]; 0.1 μM): +213% | Cortisol absolute change vs control ([2]; 0.1 μM): -92.95 nmol/L | Cortisol percentage change vs control ([2]; 0.1 μM): −14% | DHEA absolute change vs control ([2]; 0.1 μM): <LLQ | DHEAS absolute change vs control ([2]; 0.1 μM): <LLQ | Prog absolute change vs control ([2]; 0.1 μM): +0.5167 nmol/l | Prog percentage change vs control ([2]; 0.1 μM): (+36%) | Testosterone absolute change vs control ([2]; 0.1 μM): -0.3250 nmol/L | Testosterone percentage change vs control ([2]; 0.1 μM): (−57%) | Androstenedione percentage change vs control ([2]; 0.1 μM, listed as RK): (−66%*) | Corticosterone percentage change vs control ([2]; 0.1 μM, listed as RK): (+213%****) | Cortisol percentage change vs control ([2]; 0.1 μM, listed as RK): (−14%**) | 11-DOC absolute change vs control ([2]; 0.5 μM): -37.70 nmol/L | 11-DOC percentage change vs control ([2]; 0.5 μM): (−14%***) | 17-OHP absolute change vs control ([2]; 0.5 μM): +11.45 ± 1 nmol/l | 17-OHP percentage change vs control ([2]; 0.5 μM): (+58%*) | Androstenedione absolute change vs control ([2]; 0.5 μM): -47.28 nmol/L | Androstenedione percentage change vs control ([2]; 0.5 μM): (−95%) | Corticosterone absolute change vs control ([2]; 0.5 μM): +143.8 nmol/l | Corticosterone percentage change vs control ([2]; 0.5 μM): (+174%*) | Cortisol absolute change vs control ([2]; 0.5 μM): -562.7 nmol/L | Cortisol percentage change vs control ([2]; 0.5 μM): (−87%) | DHEA absolute change vs control ([2]; 0.5 μM): <LLQ | DHEAS absolute change vs control ([2]; 0.5 μM): <LLQ | Prog absolute change vs control ([2]; 0.5 μM): +22.47 nmol/l | Prog percentage change vs control ([2]; 0.5 μM): (+1567%) | Testosterone absolute change vs control ([2]; 0.5 μM): -0.4475 nmol/L | Testosterone percentage change vs control ([2]; 0.5 μM): (−79%) | total change of steroids: increase ([2]; CPA no. 2, basal, 0.1 μM): 55.6 nmol/L
